Laboratory results published in patent publication US20050112573A1, “Method of detecting toxic substance” (priority 2001, published 2005).

Tested on: yeast genes (level of expressed mRNA)
Test: DNA chip analysis of expressed mRNA of yeast genes after 2 h culture with a toxic chemical substance
Format: cell-based, Saccharomyces cerevisiae S288C
Description: Yeast (Saccharomyces cerevtisiae S288C (α SUC2mal mel gap2 CUP1)) were cultured at 25° C. on YPD medium (yeast extract 1%, polypepton 2%, glucose 2%). One of toxic chemical substances was added to the cell at logarithmic growth phase, and the cell was further cultured for two hours. Cell was cultured without any chemical substance in the same condition, and was used as control. Concentrations of the chemical substances were defined to inhibit the growth of the yeast but not lead to death.
After the completion of cultivation, the culture was centrifuged to collect the cells. To the cells, sodium acetate buffer (50 mM sodium acetate, 10 mM EDTA, 1% SDS) was added, and the mixture was shaken at 65° C. for five minutes, followed by returning to room temperature, and obtaining the supernatant, which procedure was repeated two times. To the supernatant, ½ amount of a solution of phenol/chloroform was added, and the mixture was centrifuged to give a supernatant, which was added with an equal amount of chloroform, and the mixture was centrifuged to give a supernatant. To the supernatant, an equal amount of isopropanol containing 0.3 M sodium acetate was added, and the mixture was allowed to stand at room temperature for 30 minutes, after which the mixture was centrifuged to give a sediment of the whole RNAs. Seventy % ethanol was added to the sediment, and the mixture was again centrifuged to give a sediment, which was then dried and dissolved in water. mRNA was isolated from the whole RNAs as followings. In view of the fact that a poly A chain is attached to the 3′ terminus of mRNA, a polynucleotide having a poly T structure which was immobilized on the surface of latex beads was used to trap the mRNA, and then the mRNA was washed and eluted with spine column (Oligotex-dT30<Super>mRNA Purification Kit, Takara). Reverse transcription of the mRNA was conducted with a reverse transcriptase (Super Script II Reverse Transcriptase; catalogue No. 18064-014, GibcoBRL) using fluorescence-labeled nucleotides to give cDNAs that were introduced with Cy3-dUTP or Cy5-dUTP during the reverse transcription.
The labeled cDNAs were dissolved in TE buffer (10 mM Tris-HCl/1 mM EDTA, pH8.0), and the solution was dropped on the DNA chip containing the whole genes of yeast (DNA Chip Research Inc. Japan) so that the cDNAs were hybridized on the DNA chip at 65° C. for over 12 hours. The fluoresces intensity of the DNA chip was read with a scanner, and the ratio relative to the fluorescence intensity resulting from the absence of chemical substance was estimated as the following, which is shown in Tables 1 to 9: [formula]
In the Tables, “Intensity” indicated in the rightmost column is a value of the level of expressed mRNA of each gene in control cells as divided by the average level of the expressions of the whole genes.

Q: For HgCl2 [(3)], which “The level of expressed mRNA in the presence of chemical substance/” value (yeast gene YNL074C, ratio to control without chemical substance, 2 h culture) is on record?
A: 1.8

Q: What about the “The level of expressed mRNA in the presence of chemical substance/” value (yeast gene YNL092W, ratio to control without chemical substance, 2 h culture) of the same substance?
A: 2.4

Q: What about the “The level of expressed mRNA in the presence of chemical substance/The level of expressed mRNA in the absence of chemical substance” value (yeast gene YNL093W) of the same substance?
A: 0.4

Q: What about the “The level of expressed mRNA in the presence of chemical substance/” value (yeast gene YNL115C, ratio to control without chemical substance, 2 h culture) of the same substance?
A: 1.6

Q: What about the “The level of expressed mRNA in the presence of chemical substance/” value (yeast gene YNL156C, ratio to control without chemical substance, 2 h culture) of the same substance?
A: 0.9

Q: What about the “The level of expressed mRNA in the presence of chemical substance/” value (yeast gene YNL234W, ratio to control without chemical substance, 2 h culture) of the same substance?
A: 0.6

Q: And the “The level of expressed mRNA in the presence of chemical substance/” value (yeast gene YNL281W, ratio to control without chemical)?
A: 2.0

Q: And the “The level of expressed mRNA in the presence of chemical substance/” value (yeast gene YNL305C, ratio to control without chemical)?
A: 2.7

Q: What about the “The level of expressed mRNA in the presence of chemical substance/The level of expressed mRNA in the absence of chemical substance” value (yeast gene YNL333W) of the same substance?
A: 1.7

Q: What about the “The level of expressed mRNA in the presence of chemical substance/The level of expressed mRNA in the absence of chemical substance” value (yeast gene YNR010W) of the same substance?
A: 0.5

Q: What about the “The level of expressed mRNA in the presence of chemical substance/” value (yeast gene YNR068C, ratio to control without chemical) of the same substance?
A: 2.3

Q: What about the “The level of expressed mRNA in the presence of chemical substance/The level of expressed mRNA in the absence of chemical substance” value (yeast gene YNR069C) of the same substance?
A: 0.7

Q: And the “The level of expressed mRNA in the presence of chemical substance/in the absence of chemical substance” value (yeast gene YNR072W)?
A: 0.5

Q: And the “The level of expressed mRNA in the presence of chemical substance/The level of expressed mRNA in the absence of chemical substance” value (yeast gene YOL013C)?
A: 1.0

Q: What about the “The level of expressed mRNA in the presence of chemical substance/” value (yeast gene YOL032W, ratio to control without chemical) of the same substance?
A: 2.0

Q: And the “The level of expressed mRNA in the presence of chemical substance/” value (yeast gene YOL036W, ratio to control without chemical)?
A: 1.3

Q: What about the “The level of expressed mRNA in the presence of chemical substance/” value (yeast gene YOL047C, ratio to control without chemical) of the same substance?
A: 1.1

Q: And the “The level of expressed mRNA in the presence of chemical substance/” value (yeast gene YOL071W, ratio to control without chemical)?
A: 1.7

Q: What about the “The level of expressed mRNA in the presence of chemical substance/” value (yeast gene YOL082W, ratio to control without chemical) of the same substance?
A: 1.6

Q: And the “The level of expressed mRNA in the presence of chemical substance/” value (yeast gene YOL083W, ratio to control without chemical)?
A: 1.2

Q: What about the “The level of expressed mRNA in the presence of chemical substance/in the absence of chemical substance” value (yeast gene YOL096C) of the same substance?
A: 1.2

Q: What about the “The level of expressed mRNA in the presence of chemical substance/” value (yeast gene YOL117W, ratio to control without chemical) of the same substance?
A: 0.5

Q: And the “The level of expressed mRNA in the presence of chemical substance/” value (yeast gene YOL131W, ratio to control without chemical)?
A: 0.6

Q: What about the “The level of expressed mRNA in the presence of chemical substance/” value (yeast gene YOL150C, ratio to control without chemical substance, 2 h culture) of the same substance?
A: 9.9

Q: And the “The level of expressed mRNA in the presence of chemical substance/” value (yeast gene YOL162W, ratio to control without chemical)?
A: 1.7

Q: And the “The level of expressed mRNA in the presence of chemical substance/The level of expressed mRNA in the absence of chemical substance” value (yeast gene YOL164W)?
A: 1.0

Q: And the “The level of expressed mRNA in the presence of chemical substance/” value (yeast gene YOR019W, ratio to control without chemical)?
A: 0.8

Q: And the “The level of expressed mRNA in the presence of chemical substance/The level of expressed mRNA in the absence of chemical substance” value (yeast gene YOR036W)?
A: 1.4

Q: What about the “The level of expressed mRNA in the presence of chemical substance/The level of expressed mRNA in the absence of chemical substance” value (yeast gene YOR117W) of the same substance?
A: 1.7

Q: What about the “The level of expressed mRNA in the presence of chemical substance/The level of expressed mRNA in the absence of chemical substance” value (yeast gene YOR124C) of the same substance?
A: 1.3

Q: What about the “The level of expressed mRNA in the presence of chemical substance/The level of expressed mRNA in the absence of chemical substance” value (yeast gene YOR132W) of the same substance?
A: 0.8

Q: What about the “The level of expressed mRNA in the presence of chemical substance/The level of expressed mRNA in the absence of chemical substance” value (yeast gene YOR157C) of the same substance?
A: 1.2

Q: And the “The level of expressed mRNA in the presence of chemical substance/in the absence of chemical substance” value (yeast gene YOR180C)?
A: 1.0

Q: And the “The level of expressed mRNA in the presence of chemical substance/The level of expressed mRNA in the absence of chemical substance” value (yeast gene YOR181W)?
A: 1.1

Q: What about the “The level of expressed mRNA in the presence of chemical substance/The level of expressed mRNA in the absence of chemical substance” value (yeast gene YOR185C) of the same substance?
A: 1.9

Q: And the “The level of expressed mRNA in the presence of chemical substance/” value (yeast gene YOR197W, ratio to control without chemical)?
A: 1.1

Q: And the “The level of expressed mRNA in the presence of chemical substance/The level of expressed mRNA in the absence of chemical substance” value (yeast gene YOR198C)?
A: 1.4

Q: What about the “The level of expressed mRNA in the presence of chemical substance/The level of expressed mRNA in the absence of chemical substance” value (yeast gene YOR259C) of the same substance?
A: 0.8

Q: And the “The level of expressed mRNA in the presence of chemical substance/The level of expressed mRNA in the absence of chemical substance” value (yeast gene YOR261C)?
A: 0.6

Q: What about the “The level of expressed mRNA in the presence of chemical substance/The level of expressed mRNA in the absence of chemical substance” value (yeast gene YOR288C) of the same substance?
A: 1.1

Q: What about the “The level of expressed mRNA in the presence of chemical substance/The level of expressed mRNA in the absence of chemical substance” value (yeast gene YOR355W) of the same substance?
A: 1.1

Q: What about the “The level of expressed mRNA in the presence of chemical substance/in the absence of chemical substance” value (yeast gene YOR363C) of the same substance?
A: 0.9

Q: And the “The level of expressed mRNA in the presence of chemical substance/The level of expressed mRNA in the absence of chemical substance” value (yeast gene YOR383C)?
A: 2.6

Q: What about the “The level of expressed mRNA in the presence of chemical substance/” value (yeast gene YPL087W, ratio to control without chemical) of the same substance?
A: 3.0

Q: What about the “The level of expressed mRNA in the presence of chemical substance/The level of expressed mRNA in the absence of chemical substance” value (yeast gene YPL089C) of the same substance?
A: 0.5

Q: And the “The level of expressed mRNA in the presence of chemical substance/The level of expressed mRNA in the absence of chemical substance” value (yeast gene YPL109C)?
A: 0.5

Q: What about the “The level of expressed mRNA in the presence of chemical substance/The level of expressed mRNA in the absence of chemical substance” value (yeast gene YPL149W) of the same substance?
A: 0.6

Q: What about the “The level of expressed mRNA in the presence of chemical substance/The level of expressed mRNA in the absence of chemical substance” value (yeast gene YPL154C) of the same substance?
A: 4.2

Q: And the “The level of expressed mRNA in the presence of chemical substance/” value (yeast gene YPL196W, ratio to control without chemical)?
A: 1.3

Q: And the “The level of expressed mRNA in the presence of chemical substance/” value (yeast gene YPL206C, ratio to control without chemical)?
A: 1.4

Q: And the “The level of expressed mRNA in the presence of chemical substance/” value (yeast gene YPL222W, ratio to control without chemical)?
A: 0.8

Q: What about the “The level of expressed mRNA in the presence of chemical substance/” value (yeast gene YPR023C, ratio to control without chemical) of the same substance?
A: 1.2

Q: And the “The level of expressed mRNA in the presence of chemical substance/The level of expressed mRNA in the absence of chemical substance” value (yeast gene YPR103W)?
A: 1.3

Q: And the “The level of expressed mRNA in the presence of chemical substance/The level of expressed mRNA in the absence of chemical substance” value (yeast gene YPR108W)?
A: 1.3

Q: And the “The level of expressed mRNA in the presence of chemical substance/” value (yeast gene YPR151C, ratio to control without chemical)?
A: 1.5

Q: And the “The level of expressed mRNA in the presence of chemical substance/in the absence of chemical substance” value (yeast gene YPR184W)?
A: 5.7
